# Results published in patent US20130029981A1, “COMPOUNDS, COMPOSITIONS, AND METHODS FOR CONTROLLING BIOFILMS” (Katholieke Universiteit Leuven, priority 2009, published 2013).
# pIC50: −log10 of the molar value. Like-named read-outs stand apart in the source and are kept apart here.
# Assays:
# [1] = system: Salmonella Typhimurium ATCC 14028; assay: Antibacterial activity: growth inhibition, OD600 after 24 h (GIC50); type: cell-based
# Method: Evaluation of antibacterial-inhibitory activity of some substituted 2-amino-1H-imidazoles of the invention was carried out by diluting an overnight culture of Salmonella Typhimurium ATCC 14028 into a liquid medium. 200 μl of the diluted overnight culture was added to each well of a microtiter plate together with different concentrations of the test compound (1/2 dilution series of the compound). After an incubation of 24 hours the optical density at 600 nm of each well was determined with a microtiter plate reader.
# Starting from a 40 mM stock solution of each compound in DMSO, two-fold serial dilutions in 100 μl liquid broth per well were prepared in dublicate in sterile transparant microtiter plates. The broth used was TSB 1/20 for measurements at 25° C. and CFA (in case of Salmonella Typhimurium) and LBNS (in case of Pseudomonas aeruginosa) for measurements at 37° C. Subsequently an overnight culture of the bacteria (S. Typhimurium ATCC14028 or P. aeruginosa PA14) was diluted 1/200 into the corresponding liquid broth and 100 μl was added to each well of the microtiterplate resulting in a total amout of 200 μl medium per well. After an incubation of 24 hours the optical density at 600 nm of each well was determined with a microtiter plate reader (VERSAmax, Molecular Devices).
# Evaluation of antibacterial-inhibitory activity of some substituted imidazo[1,2-a]pyrimidinium bromide salts of the invention was carried out by diluting an overnight culture of Salmonella Typhimurium ATCC14028 or Pseudomonas aeruginosa PA141/200 into liquid medium. 200 μl of the diluted overnight culture was added to each well of a microtiterplate together with different concentrations of the test compound (1/2 dilution series of the compound). After an incubation of 24 hours the optical density at 600 nm of each well was determined with a microtiter plate reader.
# S. Typhimurium ATCC14028 [2] = assay: Static peg assay for prevention of biofilm formation (Calgary device, crystal violet); type: cell-based, Salmonella Typhimurium
# Method in brief: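 Calgary 96-peg device, ca. 10^6 cells of ATCC14028 per well in TSB 1/20 for 24 h at 25° C (or 48 h at 16° C, medium and compound renewed at 24 h), or in CFA broth for 24 h at 37° C, static, with two-fold compound dilutions. Crystal violet stain, acetic acid extraction, OD570. IC50 from 2–3 independent experiments.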
# [3] = system: Pseudomonas aeruginosa PA14; assay: as above; type: cell-based
# Method in brief: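 P. aeruginosa PA14 overnight TSB culture diluted 1:100 into broth with two-fold compound dilutions, biofilms grown 24 h static on polystyrene pegs of a Calgary device at 25 °C (TSB 1/20), 30 °C or 37 °C (CFA and/or LBNS). Biofilm quantified by crystal violet, extracted with 30% acetic acid, A570.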
# S. Typhimurium ATCC14028 [4] = assay: Bioscreen assay: influence on planktonic growth curve; type: cell-based, Salmonella Typhimurium; conditions: for Effect on growth at: 40 μM (S. Typhimurium): planktonic growth, 25° C.
# Source text: (§1) Some of the tested compounds show a concentration range in which biofilm formation is inhibited but no effect on planktonic growth is observed. These compounds are particularly interesting for prevention of biofilm formation since the development of resistance against these compounds is less likely. Table 8 indicates whether the different compounds have an effect on the planktonic growth of the bacteria at the IC50 for biofilm inhibition. To construct Table 8, the effect of the tested compounds on the growth curve of the bacteria was determined at a concentration equal to the IC50 for biofilm inhibition, by using the Bioscreen system available from Oy Growth Curves Ab Ltd). The Bioscreen device from Oy Growth Curves Ab Ltd was used for measuring the influence of the chemical compounds on the planktonic growth of Salmonella Typhimurium and Pseudomonas aeruginosa. The Bioscreen is a computer controlled incubator/reader/shaker that uses 10×10 well microtiter plates and measures light absorbance of each well at a specified wave length in function of time. An overnight culture of S. […] The broth used was TSB 1/20 for the experiments at 16° C. and 25° C. For experiments at 37° C. CFA medium was used for S. […] As a control 3 μl of the appropriate solvent (DMSO or EtOH) was also added to the plate in 3- or 4-fold. The microtiter plate was incubated in the Bioscreen device at 16° C., 25° C. or 37° C. for at least 36 hours, with continious medium shaking. The absorbance of each well was measured at 600 nm each 15 minutes. Excel was used to generate the growth curves for treated the treated wells and the untreated control wells. Some of the compounds show a concentration range in which biofilm formation is inhibited but no effect on the planktonic growth is observed. Table 14 indicates if the different compounds have an effect on the planktonic growth of the bacteria at the IC50 for biofilm inhibition. To construct this table the effect of the compounds on the growth curve of the bacteria was determined at a concentration equal to the IC50 for biofilm inhibtion, by using the Bioscreen system from Oy Growth Curves Ab Ltd.
# S. Typhimurium ATCC14028 [5] = assay: as above; type: cell-based, Salmonella Typhimurium; design: key: x: no influence on the planktonic growth at the IC50 for biofilm inhibition; ∘: planktonic growth is retarded at the IC50 for biofilm inhibition; conditions: planktonic growth at the IC50 for biofilm inhibition, 25° C.
# Source text: as §1
# S. Typhimurium ATCC14028 [6] = assay: as above; type: cell-based, Salmonella Typhimurium; design: key: x: no influence on planktonic growth at the IC50 for biofilm inhibition; planktonic growth is retarded at the IC50 for biofilm inhibition; conditions: planktonic growth at the IC50 for biofilm inhibition, 25° C.
# Source text: as §1, with “Table 14 indicates if the different compounds have an effect on the planktonic growth of the bacteria at the IC50 for biofilm inhibition.” left out
# S. Typhimurium SL1344 [7] = assay: Static peg assay for prevention of biofilm formation (Calgary device, crystal violet); type: cell-based; conditions: Salmonella enterica, SL1344, 16° C., read-out: IC50 biofilm inhibition
# Method: After an incubation period of 24 hours at 25° C. or 37° C. or 48 hours at 16° C. the biofilms were visualized by crystal violet staining. […] Biofilm formation assays were carried out at 16° C., 25° C. and 37° C. […] Subsequently, an overnight culture of S. […] The pegged lid was placed on the microtiter plate and the plate was incubated for 48 hours at 16° C. or for 24 hours at 25° C. without shaking. During this incubation period biofilms were formed on the surface of the pegs. In case of the assay at 16° C., after 24 hours the lid was transferred into a new plate with medium and the specific molecules used for testing. […] The remaining attached bacteria were stained for 30 minutes with 200 μl 0.1% (w/v) crystal violet in an isopropanol/methanol/PBS solution (v/v 1:1:18). Excess stain was rinsed off by placing the pegs in a 96-well plate filled with 200 μl distilled water per well. After the pegs were air dried (30 min), the dye bound to the adherent cells was extracted with 30% glacial acetic acid (200 μl). The OD570 of each well was measured using the VERSAmax microtiter plate reader.
# S. Typhimurium ATCC14028 [8] = assay: Growth inhibition of planktonic cells in the peg assay plate (OD600); type: cell-based, Salmonella Typhimurium; conditions: Salmonella enterica, ATCC14028, 16° C.
# S. Typhimurium SL1344 [9] = assay: as above; type: cell-based; conditions: Salmonella enterica, SL1344, 16° C.
# [10] = OD600 after 24 hours of growth, read-out: GIC(50)
# [11] = S. Typhimurium ATCC 14028, 25° C., read-out: IC50 for biofilm inhibition (25° C.)
# [12] = 25° C., Table 11, read-out: IC50 (biofilm formation)
# [13] = 25° C., Table 14, read-out: IC50 biofilm inhibition
# [14] = 25° C., Table 19, read-out: IC50 (biofilm formation)
# [15] = S. Typhimurium ATCC 14028, 25° C., read-out: S. Typhimurium IC50 (biofilm formation)
# [16] = P. aeruginosa PA14, 25° C., read-out: P. aeruginosa IC50 (biofilm formation)
# [17] = Salmonella enterica, 25° C., Table 11, read-out: IC50 (biofilm formation)
# [18] = Salmonella enterica, 25° C., Table 14, read-out: IC50 biofilm inhibition
# [19] = Salmonella enterica, ATCC14028, 16° C., read-out: IC50 biofilm inhibition
smiles,measurement,setting,value
Clc1ccc(-c2c[nH]c(NC3CCCC3)n2)cc1Cl,pIC50,[1]; [10],4.30
same,pIC50,S. Typhimurium ATCC14028 [2]; [11],5.22
same,pIC50,"[3]; P. aeruginosa PA14, 25° C., read-out: IC50 for biofilm inhibition (25° C.)",6.00
OC1(c2ccc(Cl)cc2)C[n+]2cccnc2N1C1CC1 (centres unmarked) [Compound 61],pIC50,[1]; 25° C.,3.70 to 4.00
same,pIC50,S. Typhimurium ATCC14028 [2]; [12],3.92
same,pIC50,S. Typhimurium ATCC14028 [2]; [13],3.92
same,pIC50,"S. Typhimurium ATCC14028 [2]; 25° C., Table 18, read-out: S. Typhimurium IC50 (biofilm formation)",4.08
same,pIC50,"[3]; 25° C., Table 18, read-out: P. aeruginosa IC50 (biofilm formation)",3.75
COc1cccc(CCN2c3nccc[n+]3CC2(O)c2ccc(Cl)c(Cl)c2)c1.[Br-] (centres unmarked) [Compound 77],pIC50,S. Typhimurium ATCC14028 [2]; [12],5.13
same,pIC50,S. Typhimurium ATCC14028 [2]; [13],5.13
same,pIC50,S. Typhimurium ATCC14028 [2]; [14],5.14
same,Effect on growth at 40 μM,S. Typhimurium ATCC14028 [4]; 40 μM,∘
same,Influence on growth,S. Typhimurium ATCC14028 [5],x
OC1(c2ccc(F)cc2)C[n+]2cccnc2N1Cc1ccc2c(c1)OCO2.[Br-] (centres unmarked) [Compound 79],pIC50,[1]; 25° C.,3.70
same,pIC50,S. Typhimurium ATCC14028 [2]; [12],4.53
same,pIC50,S. Typhimurium ATCC14028 [2]; [13],4.53
same,pIC50,S. Typhimurium ATCC14028 [2]; [14],4.76
same,Effect on growth at 400 μM,S. Typhimurium ATCC14028 [4]; 400 μM,∘
same,Influence on growth,S. Typhimurium ATCC14028 [6],∘
Nc1nc(-c2ccc([N+](=O)[O-])cc2)c[nH]1 [Compound 90],pIC50,S. Typhimurium ATCC14028 [2]; [15],4.75
same,pIC50,[3]; [16],4.46
same,Effect on growth at: 40 μM (S. Typhimurium),S. Typhimurium ATCC14028 [4]; 40 μM,∘
CCCCCNc1ncc(-c2ccc(Cl)c(Cl)c2)[nH]1 [Compound 110],pIC50,S. Typhimurium ATCC14028 [2]; [15],5.66
same,pIC50,[3]; [16],6.15
same,Effect on growth at: 40 μM (S. Typhimurium),S. Typhimurium ATCC14028 [4]; 40 μM,∘
Clc1ccc(-c2cnc(NCc3ccccc3)[nH]2)cc1 [Compound 127],pIC50,[1]; [10],4.00
same,pIC50,"S. Typhimurium ATCC14028 [2]; 25° C., Table 22, read-out: S. Typhimurium IC50 (biofilm formation)",4.51
same,pIC50,S. Typhimurium ATCC14028 [2]; [11],4.51
same,pIC50,"[3]; 25° C., Table 22, read-out: P. aeruginosa IC50 (biofilm formation)",4.58
"O=[N+]([O-])c1cccc(C2(O)C[n+]3cccnc3N2C2CCCCCCCCCCC2)c1.[Br-] (centres unmarked) [R1=Cyclododecyl, R3=3-NO2Ph, R4=H, 1-cyclododecyl-2-hydroxy-2-(3-nitrophenyl)-2,3-dihydro-1H-imidazo[1,2-a]pyrimidin-4-ium bromide]",pIC50,"[1]; Salmonella enterica, 25° C.",4.92 to 5.22
same,pIC50,S. Typhimurium ATCC14028 [2]; [17],> 5.20
same,pIC50,S. Typhimurium ATCC14028 [2]; [18],> 5.20
same,Influence on growth,S. Typhimurium ATCC14028 [6],∘
"OC1(c2ccc(Br)cc2)C[n+]2cccnc2N1C1CC1.[Br-] (centres unmarked) [R1=Cyclopropyl, R3=4-Br—Ph, R4=H, 1-cyclopropyl-2-hydroxy-2-(4-bromophenyl)-2,3-dihydro-1H-imidazo[1,2-a]-pyrimidin-4-ium bromide]",pIC50,"[1]; Salmonella enterica, 25° C.",4.30 to 4.60
same,pIC50,S. Typhimurium ATCC14028 [2]; [17],4.57
same,pIC50,S. Typhimurium ATCC14028 [2]; [18],4.57
same,Influence on growth,S. Typhimurium ATCC14028 [5],x
c1ccc(Sc2ccc3c(c2)OCO3)c(CNC2=NCCN2)c1 [Specs3-1],pIC50,S. Typhimurium ATCC14028 [2]; [19],4.38
same,pIC50,S. Typhimurium SL1344 [7],~4.18
same,pIC50,S. Typhimurium ATCC14028 [8],3.38
same,pIC50,S. Typhimurium SL1344 [9],3.38
Fc1ccccc1Sc1ccccc1CNC1=NCCN1 [Specs3-3],pIC50,S. Typhimurium ATCC14028 [2]; [19],4.48
same,pIC50,S. Typhimurium SL1344 [7],4.17
same,pIC50,S. Typhimurium ATCC14028 [8],3.58
same,pIC50,S. Typhimurium SL1344 [9],3.58
c1ccc(Sc2cccc3ccccc23)c(CNC2=NCCN2)c1 [Specs3-4],pIC50,S. Typhimurium ATCC14028 [2]; [19],4.78
same,pIC50,S. Typhimurium SL1344 [7],4.81
same,pIC50,S. Typhimurium ATCC14028 [8],4.08
same,pIC50,S. Typhimurium SL1344 [9],4.08
Fc1ccc(Sc2ccccc2CNC2=NCCN2)cc1 [Specs3],pIC50,S. Typhimurium ATCC14028 [2]; [19],4.66
same,pIC50,S. Typhimurium SL1344 [7],~4.50
same,pIC50,S. Typhimurium ATCC14028 [8],3.55
same,pIC50,S. Typhimurium SL1344 [9],3.55
